Measured values: ChEMBL document CHEMBL5154908, “Design, Synthesis, and Biological Characterization of Inhaled p38α/β MAPK Inhibitors for the Treatment of Lung Inflammatory Diseases” (J Med Chem, 2022)
≈ marks a conversion by molar mass, not a printed value.

Legend:
Rattus norvegicus [1] = assay: Antiinflammatory activity against LPS-induced Sprague-Dawley rat inflammatory model assessed as inhibition of neutrophil cells release in BALF at 0.1 mg/kg, IT preincubated for 2 hrs followed by LPS-stimulation and measured after 4 hrs relative to control; type: functional; parameters: scale not given: the % may be the effect or the level left; conditions: time 6 hrs
Rattus norvegicus [2] = assay: Antiinflammatory activity against LPS-induced Sprague-Dawley rat inflammatory model assessed as inhibition of neutrophil cells release in BALF at 0.3 mg/kg, IT preincubated for 2 hrs followed by LPS-stimulation and measured after 4 hrs relative to control; type: functional; parameters: scale not given: the % may be the effect or the level left; conditions: time 6 hrs
[3] = biological target: T1, Mitogen-activated protein kinase 14 (Homo sapiens, UniProt Q16539); assay: Inhibition of human recombinant full length GST-tagged p38alpha expressed in Escherichia coli preincubated for 2 hrs followed by ATP addition and measured after 1 hr by Alpha screen assay
T1 sequence (Q16539 whole entry): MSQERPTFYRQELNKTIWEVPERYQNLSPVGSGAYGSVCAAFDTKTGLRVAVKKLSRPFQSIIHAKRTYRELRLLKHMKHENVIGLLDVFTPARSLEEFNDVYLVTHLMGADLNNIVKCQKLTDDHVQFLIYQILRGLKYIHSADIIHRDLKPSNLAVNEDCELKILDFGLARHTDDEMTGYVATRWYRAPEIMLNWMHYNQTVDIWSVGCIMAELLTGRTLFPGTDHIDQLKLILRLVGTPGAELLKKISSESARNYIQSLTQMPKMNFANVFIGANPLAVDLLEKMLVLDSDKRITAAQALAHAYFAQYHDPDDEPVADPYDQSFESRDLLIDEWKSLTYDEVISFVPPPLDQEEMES

[4] = biological target: Mitogen-activated protein kinase 11 (Homo sapiens, UniProt Q15759); assay: Inhibition of recombinant human full length His-tagged p38beta expressed in baculovirus expression system preincubated for 2 hrs followed by ATP addition and measured after 1 hr by Alpha screen assay
Sequence of Mitogen-activated protein kinase 11 (Q15759 whole entry): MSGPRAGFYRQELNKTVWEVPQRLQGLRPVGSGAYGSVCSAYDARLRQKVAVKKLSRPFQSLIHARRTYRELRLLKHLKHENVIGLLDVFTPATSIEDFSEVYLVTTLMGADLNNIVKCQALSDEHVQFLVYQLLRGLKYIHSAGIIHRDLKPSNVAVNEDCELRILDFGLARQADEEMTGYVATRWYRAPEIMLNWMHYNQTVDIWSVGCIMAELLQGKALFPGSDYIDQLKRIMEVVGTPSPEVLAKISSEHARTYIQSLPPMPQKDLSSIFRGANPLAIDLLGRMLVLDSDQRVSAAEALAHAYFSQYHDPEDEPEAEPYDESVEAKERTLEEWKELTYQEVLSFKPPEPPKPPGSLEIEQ

[5] = Permeability across apical to basolateral side in human Caco-2 cells at 10 uM measured after 60 mins by LC/MS/MS analysis; type: ADME, cell-based; conditions: read-out: permeability
[6] = Drug uptake in Sprague-Dawley rat lung homogenate at 0.03 mg/kg, IT measured after 24 hrs by LC/MS/MS analysis; type: ADME, organism-based; conditions: in vivo, other
[7] = Drug uptake in Sprague-Dawley rat lung homogenate at 0.03 mg/kg, IT measured after 7 hrs by LC/MS/MS analysis; type: ADME, organism-based; conditions: in vivo, other
[8] = Solubility of the compound at >=1 mg/ml measured after 30 mins by HPLC analysis; type: physicochemical
[9] = biological target: T1, Mitogen-activated protein kinase 14; assay: Displacement of SKF-86002 from human inactivated p38alpha assessed as dissociation half life incubated for 2 hrs by fluorescence based analysis
[10] = Drug concentration in Sprague-Dawley rat lung homogenate at 0.3 mg/kg, IT measured after 24 hrs by LC/MS/MS analysis; type: ADME, organism-based; conditions: read-out: Ct
[11] = Cmax in Sprague-Dawley rat lung homogenate at 0.3 mg/kg, IT measured after 0.8 hrs by LC/MS/MS analysis; type: ADME, organism-based; parameters: time 0.8 hrs, dose 0.3 mg/kg, route it
[12] = biological target: T2, Mitogen-activated protein kinase 12 (Homo sapiens, UniProt P53778); assay: Inhibition of recombinant human full length His-tagged p38gamma expressed in baculovirus expression system preincubated for 2 hrs followed by ATP addition and measured after 1 hr by Alpha screen assay
T2 sequence (P53778 whole entry): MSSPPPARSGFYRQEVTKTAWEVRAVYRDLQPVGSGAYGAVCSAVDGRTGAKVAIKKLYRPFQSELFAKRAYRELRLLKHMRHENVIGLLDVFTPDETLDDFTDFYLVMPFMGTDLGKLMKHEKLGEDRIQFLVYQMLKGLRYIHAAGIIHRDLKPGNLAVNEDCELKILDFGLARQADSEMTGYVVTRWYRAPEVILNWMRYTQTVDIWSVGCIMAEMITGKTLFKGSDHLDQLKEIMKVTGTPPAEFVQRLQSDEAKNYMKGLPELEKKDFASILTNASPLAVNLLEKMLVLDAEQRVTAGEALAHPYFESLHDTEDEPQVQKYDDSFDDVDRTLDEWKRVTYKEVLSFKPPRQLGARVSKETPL

[13] = Efflux ratio of permeability in human Caco-2 cells at 10 uM measured after 60 mins by LC-MS/MS analysis; type: ADME, cell-based
[14] = Protein binding in rat lung homogenate at 10 uM incubated for 4 hrs by LC/MS/MS analysis; type: ADME, tissue-based; conditions: read-out: PB (converted)
Rattus norvegicus [15] = assay: Antiinflammatory activity against LPS-induced Sprague-Dawley rat inflammatory model assessed as inhibition of neutrophil cells release in BALF at 0.3 mg/kg, IT incubated for 9 hrs followed by LPS-stimulation relative to control; type: functional
[16] = biological target: T3, Mitogen-activated protein kinase 13 (Homo sapiens, UniProt O15264); assay: Inhibition of recombinant human full length His-tagged p38delta expressed in baculovirus expression system preincubated for 2 hrs followed by ATP addition and measured after 1 hr by Alpha screen assay
T3 sequence (O15264 whole entry): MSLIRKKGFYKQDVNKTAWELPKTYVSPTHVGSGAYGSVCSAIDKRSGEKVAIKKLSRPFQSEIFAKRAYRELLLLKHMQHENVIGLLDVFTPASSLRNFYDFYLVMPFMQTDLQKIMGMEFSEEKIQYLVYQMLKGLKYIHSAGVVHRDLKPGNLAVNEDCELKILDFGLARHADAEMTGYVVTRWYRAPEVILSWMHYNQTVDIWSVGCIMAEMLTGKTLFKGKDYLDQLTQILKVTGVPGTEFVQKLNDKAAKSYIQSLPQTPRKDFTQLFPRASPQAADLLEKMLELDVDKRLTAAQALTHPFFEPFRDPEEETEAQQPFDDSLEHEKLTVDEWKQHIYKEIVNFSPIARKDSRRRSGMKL

[17] = Cmax in Sprague-Dawley rat plasma at 0.3 mg/kg, IT measured after 0.8 hrs by LC/MS/MS analysis; type: ADME, organism-based; parameters: time 0.8 hrs, dose 0.3 mg/kg, route it
[18] = Inhibition of LPS-stimulated TNFalpha release in human PBMC cells preincubated for 1 hr followed by LPS stimulation and measured after 18 hrs; type: functional, cell-based
[19] = Protein binding in rat plasma at 10 uM incubated for 4 hrs by LC/MS/MS analysis; type: ADME, cell-free; conditions: read-out: PPB (converted)
[20] = Selectivity index, ratio of drug concentration in Sprague-Dawley rat lung homogenate to IC50 for human p38alpha; type: tissue-based; conditions: tissue homogenate

| SMILES | Activity (Rattus norvegicus [1]) [%] | Activity (Rattus norvegicus [2]) [%] | IC50 [3] [nM] | IC50 [4] [nM] | Papp A→B at 1 h, 10 µM [5] [×10⁻⁶ cm/s] | Drug uptake [6] [%] | Drug uptake [7] [%] | solubility at 0.5 h [8] [µg/mL] | T1/2 [9] [h] | concentration at 24 h [10] [µM] | Cmax [11] [µM] | IC50 [12] [nM] | efflux ratio at 1 h, 10 µM [13] | fraction unbound at 4 h, 10 µM [14] | inhibition in vivo at 0.3 mg/kg (Rattus norvegicus [15]) [%] | IC50 [16] [nM] | Cmax [17] [µM] | IC50 [18] [nM] | fraction unbound at 4 h, 10 µM [19] | Ratio [20] |
| --- | --- | --- | --- | --- | --- | --- | --- | --- | --- | --- | --- | --- | --- | --- | --- | --- | --- | --- | --- | --- |
| C[C@H]1CCCCN1c1nnc2ccc(O[C@@H]3CC[C@H](NC(=O)Nc4cc(C(C)(C)C)nn4-c4cnn(CCN(C)C)c4)c4ccccc43)cn12.Cl | 55 | 49 |  |  |  |  |  |  |  |  |  |  |  |  |  |  |  |  |  |  |
| C[C@@H]1CCC[C@H](C)N1c1nnc2ccc(O[C@@H]3CC[C@H](NC(=O)Nc4cc(C(C)(C)C)nn4-c4cnn(CCN(C)C)c4)c4ccccc43)cn12 |  |  | 0.05 | 0.1 | 1.9 | 5.4 | 10 | 620 (≈ 893 µM) | > 16 | 4.58 | 6.36 | 805 | > 2.5 | 0.002 | 43 | > 10000 | 0.03 | 0.5 | 0.004 | 183 |
